Results reported in the supplement of paper PMC12592484.

Columns and labels:
Assay in all cases: drug sensitivity score (DSS2, normalised partial AUC of dose-response, 72 h CellTiter-Glo viability) (DSS (dimensionless)); higher = more sensitive (stronger growth inhibition / cytotoxicity); extreme values may be limits of the assay
22Rv1 = test system: 22Rv1
Procedure, shortened: (§1)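 Five doses spanning a 10,000-fold range were pre-dispensed into 384-well plates, into which low-passage primary prostate cancer-associated fibroblasts, PF179T, WPMY-1, LNCaP and 22Rv1 cells were seeded. After 72 h, CellTiter-Glo 2.0 luminescence measured viability, scaled to vehicle and positive-control wells. Higher values of the drug sensitivity score, a BREEZE-computed partial area under the fitted logistic dose–response curve divided by the log of the upper asymptote, mean greater sensitivity.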

CAF#1 = test system: CAF#1 (primary prostate cancer-associated fibroblasts of myCAF-like type)
Procedure, shortened: as §1

CAF#2 = test system: CAF#2 (primary prostate cancer-associated fibroblasts of iCAF-like type)
Procedure, shortened: as §1

CAF#3 = test system: CAF#3 (primary prostate cancer-associated fibroblasts of myCAF-like type)
Procedure, shortened: as §1

CAF#4 = test system: CAF#4 (primary prostate cancer-associated fibroblasts of iCAF-like type)
Procedure, shortened: as §1

CAF#5 = test system: CAF#5 (primary prostate cancer-associated fibroblasts of myCAF-like type)
Procedure, shortened: as §1

CAF#6 = test system: CAF#6 (primary prostate cancer-associated fibroblasts of iCAF-like type)
Procedure, shortened: as §1

CAF#7 = test system: CAF#7 (primary prostate cancer-associated fibroblasts of myCAF-like type)
Procedure, shortened: as §1

LNCAP = test system: LNCAP
Procedure, shortened: as §1

PF179T = test system: PF179T
Procedure, shortened: as §1

WPMY-1 = test system: WPMY-1
Procedure, shortened: as §1

SMILES | drug sensitivity score (22Rv1) | drug sensitivity score (CAF#1) | drug sensitivity score (CAF#2) | drug sensitivity score (CAF#3) | drug sensitivity score (CAF#4) | drug sensitivity score (CAF#5) | drug sensitivity score (CAF#6) | drug sensitivity score (CAF#7) | drug sensitivity score (LNCAP) | drug sensitivity score (PF179T) | drug sensitivity score (WPMY-1)
CC(=O)O[C@H]1C(=O)[C@@]2(C)[C@H]([C@H](OC(=O)c3ccccc3)[C@]3(O)C[C@H](OC(=O)[C@H](O)[C@@H](NC(=O)c4ccccc4)c4ccccc4)C(C)=C1C3(C)C)[C@]1(OC(C)=O)CO[C@@H]1C[C@@H]2O [Paclitaxel] (tested concentration range 0.1-1000 nM) | 22.4 | 14.8 | 16.8 | 10.8 | 8.8 | 15.4 | 15.3 | 24.2 | 31.3 | 18.2 | 26.4
FC(F)(F)c1ccc(CNc2ccc(Cc3c[nH]c4ncc(Cl)cc34)cn2)cn1 [Pexidartinib] (tested concentration range 1-10000 nM) | 0 | 4.8 | 5.9 | 1.2 | 3 | 5.1 | 0 | 2.7 | 1.4 | 1.7 | 0.6
CCN1CCN(Cc2ccc(Nc3ncc(F)c(-c4cc(F)c5nc(C)n(C(C)C)c5c4)n3)nc2)CC1 [Abemaciclib] (tested concentration range 0.2-2500 nM) | 11 | 0 | 5.6 | 0 | 0.2 | 0 | 0.1 | 0 | 8.7 | 0.6 | 6
CN1CCc2c(c3ccccc3n2Cc2ccc(C(=O)NO)cc2)C1 [Tubastatin A] (tested concentration range 1-10000 nM) | 2.3 | 0 | 0.2 | 0.6 | 2.8 | 0 | 0 | 0 | 1.4 | 0 | 5.9
NC(=O)/C(=C/n1cnc(-c2cc(C(F)(F)F)cc(C(F)(F)F)c2)n1)c1cncnc1 [Eltanexor] (tested concentration range 1-10000 nM) | 31.1 | 14.5 | 22.8 | 10.8 | 15.5 | 16.8 | 12.1 | 14.4 | 28.6 | 18.2 | 27.5
CC1(C)OCCn2c1nc1c(N3CCOCC3)nc(-c3cnc(N)nc3)nc12 [Paxalisib] (tested concentration range 1-10000 nM) | 18.1 | 16 |  |  | 13 | 18.3 |  |  | 13.5 |  | 
